Test results: US6737383B1, “Herbicidal oxadiazolidines” (priority 1999, dated 2004)

Legend:
[1] = tested on: surinam grass; test: Test B pre/postemergence surinam grass; assay type: in vivo, Brachiaria decumbens
Outline: (§1)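 Herbicidal effect was estimated by eye on a ten-point control scale after plants spent twelve to sixteen days in a greenhouse following soil or foliar treatment. Foliar sprays targeted plants at one to four leaves; all doses were formulated in a non-phytotoxic solvent with surfactant.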

[2] = tested on: bedstraw; test: Test B pre/postemergence bedstraw; assay type: in vivo, Galium aparine
Outline: as §1

[3] = tested on: wild oat; test: Test B pre/postemergence wild oat; assay type: in vivo, Avena fatua
Outline: as §1

[4] = tested on: velvetleaf; test: Test B pre/postemergence velvetleaf; assay type: in vivo, Abutilon theophrasti
Outline: as §1

[5] = tested on: blackgrass; test: Test B pre/postemergence blackgrass; assay type: in vivo, Alopecurus myosuroides
Outline: as §1

[6] = tested on: bamyardgrass; test: Test B flood test barnyardgrass; assay type: in vivo, Echinochloa crus-galli
Outline: (§2)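 Plants were grown to the 2-leaf stage before treatment with test chemical, then held in a greenhouse for twelve to sixteen days. Injury was visually rated against untreated controls on a 0–10 scale, where 0 is no effect and 10 is complete control.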

[7] = tested on: soybean; test: Test B pre/postemergence soybean; assay type: in vivo, Glycine max
Outline: as §1

[8] = tested on: pigweed; test: Test B pre/postemergence pigweed; assay type: in vivo, Amaranthus retroflexus
Outline: as §1

[9] = tested on: rape; test: Test B pre/postemergence rape; assay type: in vivo, Brassica napus
Outline: as §1

[10] = tested on: smallflower flatsedge; test: Test B flood test smallflower flatsedge; assay type: in vivo, Cyperus difformis
Outline: as §2

[11] = tested on: cocklebur; test: Test B pre/postemergence cocklebur; assay type: in vivo, Xanthium strumarium
Outline: as §1

[12] = tested on: rice; test: Test B flood test rice; assay type: in vivo, Oryza sativa
Outline: as §2

[13] = tested on: sugar beet; test: Test B pre/postemergence sugar beet; assay type: in vivo, Beta vulgaris
Outline: as §1

[14] = tested on: morningglory; test: Test B pre/postemergence morningglory; assay type: in vivo, Ipomoea hederacea
Outline: as §1

[15] = tested on: corn; test: Test B pre/postemergence corn; assay type: in vivo, Zea mays
Outline: as §1

[16] = tested on: purple nutsedge; test: Test B pre/postemergence purple nutsedge; assay type: in vivo, Cyperus rotundus
Outline: as §1

[17] = Postemergence, Rate 125 g/ha, scale of 0 to 10 where 0 is no effect and 10 is complete control
[18] = Preemergence, Rate 62 g/ha, scale 0 to 10 (0 no effect, 10 complete control)
[19] = Preemergence, Rate 125 g/ha, 0 is no effect, 10 is complete control
[20] = Preemergence, Rate 250 g/ha, scale 0 to 10, 0 is no effect, 10 is complete control
[21] = Preemergence, Rate 500 g/ha, scale 0 to 10 (0 no effect, 10 complete control)
[22] = Rate 62 g/ha, Postemergence, scale of 0 to 10 where 0 is no effect and 10 is complete control
[23] = Rate 250 g/ha, Postemergence, scale 0 to 10, 0 is no effect, 10 is complete control
[24] = Rate 500 g/ha, Postemergence, scale 0 to 10
[25] = Postemergence (flood test species), Rate 125 g/ha, scale of 0 to 10 where 0 is no effect and 10 is complete control
[26] = Rate 62 g/ha, Postemergence section, flood test species, scale of 0 to 10 where 0 is no effect and 10 is complete control
[27] = Rate 250 g/ha, Postemergence (flood test), scale 0 to 10, 0 is no effect, 10 is complete control
[28] = Rate 500 g/ha, listed under Postemergence (flood test species), scale 0 to 10

## Cc1ccccc1Cn1c(=O)on(C(=O)N(c2ccc(Cl)cc2)C(C)C)c1=O [Compound 136]
[1]; [17]
  B. signalgrass plant response rating: 0
[1]; [18]
  B. signalgrass plant response rating: 3
[1]; [19]
  B. signalgrass plant response rating (0 to 10 scale): 3
[1]; [20]
  B. signalgrass plant response rating: 5
[1]; [21]
  B. signalgrass plant response rating: 5
[1]; [22]
  B. signalgrass plant response rating: 0
[1]; [23]
  Plant response rating, B. signalgrass: 1
[1]; Rate 500 g/ha, Postemergence, scale of 0 to 10 where 0 is no effect and 10 is complete control
  B. signalgrass plant response rating: 3
[2]; [17]
  Bedstraw plant response rating: 5
[2]; [19]
  Bedstraw plant response rating (0 to 10 scale): 0
[2]; [20]
  Bedstraw plant response rating: 0
[2]; [21]
  Bedstraw plant response rating: 0
[2]; [22]
  Bedstraw plant response rating: 2
[2]; [23]
  Plant response rating, Bedstraw: 8
[3]; [17]
  Wild oats plant response rating: 0
[3]; [18]
  Wild oats plant response rating: 0
[3]; [19]
  Wild oats plant response rating (0 to 10 scale): 0
[3]; [20]
  Wild oats plant response rating: 0
[3]; [21]
  Wild oats plant response rating: 3
[3]; [22]
  Wild oats plant response rating: 0
[3]; [23]
  Plant response rating, Wild oats: 0
[3]; [24]
  Wild oats plant response rating: 3
[4]; [17]
  Velvetleaf plant response rating: 0
[4]; [18]
  Velvetleaf plant response rating: 0
[4]; [19]
  Velvetleaf plant response rating (0 to 10 scale): 0
[4]; [20]
  Velvetleaf plant response rating: 0
[4]; [21]
  Velvetleaf plant response rating: 4
[4]; [22]
  Velvetleaf plant response rating: 0
[4]; [23]
  Plant response rating, Velvetleaf: 0
[4]; [24]
  Velvetleaf plant response rating: 2
[5]; [17]
  Blackgrass plant response rating: 0
[5]; [18]
  Blackgrass plant response rating: 0
[5]; [19]
  Blackgrass plant response rating (0 to 10 scale): 4
[5]; [20]
  Blackgrass plant response rating: 4
[5]; [21]
  Blackgrass plant response rating: 6
[5]; [22]
  Blackgrass plant response rating: 0
[5]; [23]
  Plant response rating, Blackgrass: 3
[5]; [24]
  Blackgrass plant response rating: 5
[6]; [25]
  Barnyardgrass plant response rating: 0
[6]; [26]
  Barnyardgrass plant response rating: 0
[6]; [27]
  Plant response rating, Barnyardgrass: 0
[6]; Rate 500 g/ha, listed under Postemergence (flood test species), scale 0 to 10, 0 no effect, 10 complete control
  Barnyardgrass plant response rating: 0
[7]; [17]
  Soybean plant response rating: 4
[7]; [18]
  Soybean plant response rating: 0
[7]; [19]
  Soybean plant response rating (0 to 10 scale): 0
[7]; [20]
  Soybean plant response rating: 0
[7]; [21]
  Soybean plant response rating: 0
[7]; [22]
  Soybean plant response rating: 3
[7]; [23]
  Plant response rating, Soybean: 4
[7]; [24]
  Soybean plant response rating: 5
[8]; [17]
  Redroot pigweed plant response rating: 4
[8]; [18]
  Redroot pigweed plant response rating: 7
[8]; [19]
  Redroot pigweed plant response rating (0 to 10 scale): 8
[8]; [20]
  Redroot pigweed plant response rating: 10
[8]; [21]
  Redroot pigweed plant response rating: 10
[8]; [22]
  Redroot pigweed plant response rating: 3
[8]; [23]
  Plant response rating, Redroot pigweed: 6
[8]; [24]
  Redroot pigweed plant response rating: 6
[9]; [17]
  Rape plant response rating: 0
[9]; [18]
  Rape plant response rating: 0
[9]; [19]
  Rape plant response rating (0 to 10 scale): 0
[9]; [20]
  Rape plant response rating: 0
[9]; [21]
  Rape plant response rating: 0
[9]; [22]
  Rape plant response rating: 0
[9]; [23]
  Plant response rating, Rape: 2
[9]; [24]
  Rape plant response rating: 4
[10]; [25]
  S. Flatsedge plant response rating: 0
[10]; [26]
  S. Flatsedge plant response rating: 0
[10]; [27]
  Plant response rating, S. Flatsedge: 0
[10]; [28]
  S. Flatsedge plant response rating: 0
[11]; [17]
  Cocklebur plant response rating: 2
[11]; [18]
  Cocklebur plant response rating: 0
[11]; [19]
  Cocklebur plant response rating (0 to 10 scale): 0
[11]; [20]
  Cocklebur plant response rating: 0
[11]; [22]
  Cocklebur plant response rating: 1
[11]; [23]
  Plant response rating, Cocklebur: 2
[11]; [24]
  Cocklebur plant response rating: 4
[12]; [25]
  Rice plant response rating: 0
[12]; [26]
  Rice plant response rating: 0
[12]; [27]
  Plant response rating, Rice: 0
[12]; [28]
  Rice plant response rating: 0
[13]; [17]
  Sugarbeets plant response rating: 4
[13]; [18]
  Sugarbeets plant response rating: 4
[13]; [19]
  Sugarbeets plant response rating (0 to 10 scale): 4
[13]; [20]
  Sugarbeets plant response rating: 8
[13]; [21]
  Sugarbeets plant response rating: 9
[13]; [22]
  Sugarbeets plant response rating: 3
[13]; [23]
  Plant response rating, Sugarbeets: 7
[13]; [24]
  Sugarbeets plant response rating: 8
[14]; [17]
  Morningglory plant response rating: 10
[14]; [18]
  Morningglory plant response rating: 0
[14]; [19]
  Morningglory plant response rating (0 to 10 scale): 0
[14]; [20]
  Morningglory plant response rating: 0
[14]; [21]
  Morningglory plant response rating: 0
[14]; [22]
  Morningglory plant response rating: 6
[14]; [23]
  Plant response rating, Morningglory: 10
[14]; [24]
  Morningglory plant response rating: 10
[15]; [17]
  Corn plant response rating: 0
[15]; [18]
  Corn plant response rating: 0
[15]; [19]
  Corn plant response rating (0 to 10 scale): 0
[15]; [20]
  Corn plant response rating: 0
[15]; [21]
  Corn plant response rating: 0
[15]; [22]
  Corn plant response rating: 0
[15]; [23]
  Plant response rating, Corn: 0
[15]; [24]
  Corn plant response rating: 0
[16]; [17]
  Nutsedge plant response rating: 0
[16]; [18]
  Nutsedge plant response rating: 0
[16]; [19]
  Nutsedge plant response rating (0 to 10 scale): 0
[16]; [20]
  Nutsedge plant response rating: 0
[16]; [22]
  Nutsedge plant response rating: 0
[16]; [23]
  Plant response rating, Nutsedge: 0
[16]; [24]
  Nutsedge plant response rating: 0
